In ChEMBL document CHEMBL4118195, “Synthesis and profiling of benzylmorpholine 1,2,4,5-tetraoxane analogue N205: Towards tetraoxane scaffolds with potential for single dose cure of malaria” (Bioorg Med Chem, 2018):

Tests used:
Mus musculus [1] = experiment: Dose normalized Cmax in humanized NOD.Cg-Prkdcscid Il2rgtm1Wjl/SzJ mouse infected with Plasmodium falciparum Pf3D70087/N9 at 5 mg/kg, po administered as single dose after 0.25 to 23 hrs by LC-MS/MS analysis; assay type: ADME, organism-based; conditions: in vivo
[2] = Drug metabolism in mouse liver microsomes assessed as metabolite M+32 (III) formation at 5 uM after 60 mins by UPLC-MS analysis; assay type: ADME, microsome; conditions: 1 h
[3] = Cmax in humanized NOD.Cg-Prkdcscid Il2rgtm1Wjl/SzJ mouse infected with Plasmodium falciparum Pf3D70087/N9 at 50 mg/kg, po administered as single dose after 0.25 to 23 hrs by LC-MS/MS analysis; assay type: ADME, organism-based; set-up: dose 50 mg/kg, route oral; conditions: in vivo
[4] = Drug metabolism in mouse liver microsomes assessed as open morpholine ring metabolite formation at 5 uM after 60 mins by UPLC-MS analysis; assay type: ADME, microsome; conditions: 1 h
[5] = Drug metabolism in mouse liver microsomes assessed as morpholine ring opened metabolite formation at 5 uM after 60 mins by UPLC-MS analysis; assay type: ADME, microsome; conditions: 1 h
[6] = Drug metabolism in human liver microsomes assessed as morpholine ring opened metabolite formation at 5 uM after 60 mins by UPLC-MS analysis; assay type: ADME, microsome; conditions: 1 h
[7] = Drug metabolism in mouse liver microsomes assessed as deaminated morpholine acid metabolite formation at 5 uM after 60 mins by UPLC-MS analysis; assay type: ADME, microsome; conditions: 1 h
Cytochrome P450 2C19 = Cytochrome P450 2C19 (Homo sapiens, UniProt P33261); experiment: Inhibition of CYP2C19 in human liver microsomes assessed as (S)-mephenytoin 4'-hydroxylation after 4 to 40 mins in presence of NADPH by LCMS analysis; assay type: ADME
Plasmodium falciparum [8] = experiment: Antimalarial activity against Plasmodium falciparum Pf3D70087/N9 infected in po dosed humanized NOD.Cg-Prkdcscid Il2rgtm1Wjl/SzJ mouse assessed as reduction in parasitemia administered as single dose measured on day 7 post infection by SYTO-16 dye-based flow cytometric analysis; assay type: functional; conditions: 168 h
[9] = Drug degradation in mouse liver microsomes assessed as compound half life at 5 uM by UPLC-MS method; assay type: ADME, microsome
[10] = Drug metabolism in rat liver microsomes assessed as metabolite M+32 (IV) formation at 5 uM after 60 mins by UPLC-MS analysis; assay type: ADME, microsome; conditions: 1 h
[11] = AUC (0 to t) in humanized NOD.Cg-Prkdcscid Il2rgtm1Wjl/SzJ mouse infected with Plasmodium falciparum Pf3D70087/N9 at 100 mg/kg, po administered as single dose by LC-MS/MS analysis; assay type: ADME, organism-based; conditions: in vivo
[12] = Tmax in humanized NOD.Cg-Prkdcscid Il2rgtm1Wjl/SzJ mouse infected with Plasmodium falciparum Pf3D70087/N9 at 5 mg/kg, po administered as single dose by LC-MS/MS analysis; assay type: ADME, organism-based; conditions: in vivo
[13] = Intrinsic clearance in mouse liver microsomes assessed per mg protein at 5 uM by UPLC-MS analysis; assay type: ADME, microsome; conditions: read-out: CLH
[14] = Drug metabolism in human liver microsomes assessed as mono-oxygenation and dehydrogenation metabolite formation at 5 uM after 60 mins by UPLC-MS analysis; assay type: ADME, microsome; conditions: 1 h
[15] = AUC (0 to t) in humanized NOD.Cg-Prkdcscid Il2rgtm1Wjl/SzJ mouse infected with Plasmodium falciparum Pf3D70087/N9 at 50 mg/kg, po administered as single dose by LC-MS/MS analysis; assay type: ADME, organism-based; conditions: in vivo
Mus musculus [16] = experiment: Dose normalized AUC (0 to t) in humanized NOD.Cg-Prkdcscid Il2rgtm1Wjl/SzJ mouse infected with Plasmodium falciparum Pf3D70087/N9 at 5 mg/kg, po administered as single dose by LC-MS/MS analysis; assay type: ADME, organism-based; conditions: in vivo
[17] = Drug metabolism in rat liver microsomes assessed as mono-oxygenation and dehydrogenation metabolite formation at 5 uM after 60 mins by UPLC-MS analysis; assay type: ADME, microsome; conditions: 1 h
Cytochrome P450 3A4 = Cytochrome P450 3A4 (Homo sapiens, UniProt P08684); experiment: Inhibition of CYP3A4 in human liver microsomes assessed as midazolam 1'-hydroxylation after 4 to 40 mins in presence of NADPH by LCMS analysis; assay type: ADME
Cytochrome P450 2C9 = Cytochrome P450 2C9 (Homo sapiens, UniProt P11712); experiment: Inhibition of CYP2C9 in human liver microsomes assessed as tolbutamide methylhydroxylation after 4 to 40 mins in presence of NADPH by LCMS analysis; assay type: ADME
[18] = Half life in Sprague-Dawley rat at 10 mg/kg, po; assay type: ADME, organism-based; conditions: in vivo
[19] = Drug metabolism in mouse liver microsomes assessed as metabolite M+32 (V) formation at 5 uM after 60 mins by UPLC-MS analysis; assay type: ADME, microsome; conditions: 1 h
[20] = Drug metabolism in human liver microsomes assessed as metabolite M+16 (V) formation at 5 uM after 60 mins by UPLC-MS analysis; assay type: ADME, microsome; conditions: 1 h
[21] = Drug metabolism in mouse liver microsomes assessed as cleaved morpholine ring metabolite formation at 5 uM after 60 mins by UPLC-MS analysis; assay type: ADME, microsome; conditions: 1 h
[22] = Intrinsic clearance in rat liver microsomes assessed per mg protein at 1 uM by UPLC-MS analysis; assay type: ADME, microsome; conditions: read-out: CLH
[23] = Drug metabolism in human liver microsomes assessed as open morpholine ring metabolite formation at 5 uM after 60 mins by UPLC-MS analysis; assay type: ADME, microsome; conditions: 1 h
[24] = Metabolic stability in human blood after 2 to 4 hrs by LC-MS method; assay type: ADME, tissue-based
[25] = Drug metabolism in mouse liver microsomes assessed as metabolite M-10(II) formation at 5 uM after 60 mins by UPLC-MS analysis; assay type: ADME, microsome; conditions: 1 h
[26] = Drug metabolism in rat liver microsomes assessed as cleaved morpholine ring metabolite formation at 5 uM after 60 mins by UPLC-MS analysis; assay type: ADME, microsome; conditions: 1 h
[27] = Drug metabolism in rat liver microsomes assessed as morpholine dealkylated metabolite formation at 5 uM after 60 mins by UPLC-MS analysis; assay type: ADME, microsome; conditions: 1 h
Cytochrome P450 2D6 = Cytochrome P450 2D6 (Homo sapiens, UniProt P10635); experiment: Inhibition of CYP2D6 in human liver microsomes assessed as dextromethorphan O-demethylation after 4 to 40 mins in presence of NADPH by LCMS analysis
Plasmodium falciparum [28] = experiment: Antimalarial activity against Plasmodium falciparum 3D7 infected in human erythrocytes after 48 hrs by SYBR Green I dye-based fluorescence assay; assay type: functional, organism-based; conditions: 3D7, 48 h
[29] = Drug degradation in human liver microsomes assessed as compound half life at 1 uM by UPLC-MS method; assay type: ADME, microsome
Mus musculus [30] = experiment: Dose normalized AUC (0 to t) in humanized NOD.Cg-Prkdcscid Il2rgtm1Wjl/SzJ mouse infected with Plasmodium falciparum Pf3D70087/N9 at 50 mg/kg, po administered as single dose by LC-MS/MS analysis; assay type: ADME, organism-based; conditions: in vivo
[31] = Drug metabolism in human liver microsomes at 5 uM after 60 mins by UPLC-MS analysis; assay type: ADME, microsome; conditions: read-out: Drug metabolism
Mus musculus [32] = experiment: Dose normalized Cmax in humanized NOD.Cg-Prkdcscid Il2rgtm1Wjl/SzJ mouse infected with Plasmodium falciparum Pf3D70087/N9 at 15 mg/kg, po administered as single dose after 0.25 to 23 hrs by LC-MS/MS analysis; assay type: ADME, organism-based; conditions: in vivo
[33] = Cmax in humanized NOD.Cg-Prkdcscid Il2rgtm1Wjl/SzJ mouse infected with Plasmodium falciparum Pf3D70087/N9 at 5 mg/kg, po administered as single dose after 0.25 to 23 hrs by LC-MS/MS analysis; assay type: ADME, organism-based; set-up: dose 5 mg/kg, route oral; conditions: in vivo

Cytochrome P450 3A4, sequence (P08684 whole entry): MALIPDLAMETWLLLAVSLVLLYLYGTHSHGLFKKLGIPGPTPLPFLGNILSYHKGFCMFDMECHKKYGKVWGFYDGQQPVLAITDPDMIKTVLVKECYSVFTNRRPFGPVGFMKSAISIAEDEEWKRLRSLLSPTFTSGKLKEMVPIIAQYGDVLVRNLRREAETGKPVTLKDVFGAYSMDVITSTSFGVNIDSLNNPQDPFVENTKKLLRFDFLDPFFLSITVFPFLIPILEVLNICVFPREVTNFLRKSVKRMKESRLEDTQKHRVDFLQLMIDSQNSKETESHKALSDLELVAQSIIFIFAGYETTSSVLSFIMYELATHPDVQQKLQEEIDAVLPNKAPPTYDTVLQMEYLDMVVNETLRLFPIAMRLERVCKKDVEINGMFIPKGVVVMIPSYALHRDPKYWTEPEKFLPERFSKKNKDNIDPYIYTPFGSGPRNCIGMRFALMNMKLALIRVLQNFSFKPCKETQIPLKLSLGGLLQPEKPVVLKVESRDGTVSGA
Cytochrome P450 2C9, sequence (P11712 whole entry): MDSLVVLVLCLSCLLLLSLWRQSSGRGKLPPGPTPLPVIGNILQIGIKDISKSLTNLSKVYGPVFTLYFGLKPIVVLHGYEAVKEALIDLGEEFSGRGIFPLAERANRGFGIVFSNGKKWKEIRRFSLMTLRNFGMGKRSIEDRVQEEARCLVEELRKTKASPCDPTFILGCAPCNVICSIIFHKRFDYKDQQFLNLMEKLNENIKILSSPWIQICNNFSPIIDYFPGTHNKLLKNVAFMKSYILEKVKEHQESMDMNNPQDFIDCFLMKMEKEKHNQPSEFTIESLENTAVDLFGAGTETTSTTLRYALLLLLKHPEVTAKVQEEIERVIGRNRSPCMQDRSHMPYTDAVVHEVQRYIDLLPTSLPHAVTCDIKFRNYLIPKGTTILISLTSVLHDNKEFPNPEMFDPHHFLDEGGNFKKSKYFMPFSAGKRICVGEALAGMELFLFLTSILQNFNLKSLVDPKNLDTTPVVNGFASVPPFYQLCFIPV
Cytochrome P450 2C19, sequence (P33261 whole entry): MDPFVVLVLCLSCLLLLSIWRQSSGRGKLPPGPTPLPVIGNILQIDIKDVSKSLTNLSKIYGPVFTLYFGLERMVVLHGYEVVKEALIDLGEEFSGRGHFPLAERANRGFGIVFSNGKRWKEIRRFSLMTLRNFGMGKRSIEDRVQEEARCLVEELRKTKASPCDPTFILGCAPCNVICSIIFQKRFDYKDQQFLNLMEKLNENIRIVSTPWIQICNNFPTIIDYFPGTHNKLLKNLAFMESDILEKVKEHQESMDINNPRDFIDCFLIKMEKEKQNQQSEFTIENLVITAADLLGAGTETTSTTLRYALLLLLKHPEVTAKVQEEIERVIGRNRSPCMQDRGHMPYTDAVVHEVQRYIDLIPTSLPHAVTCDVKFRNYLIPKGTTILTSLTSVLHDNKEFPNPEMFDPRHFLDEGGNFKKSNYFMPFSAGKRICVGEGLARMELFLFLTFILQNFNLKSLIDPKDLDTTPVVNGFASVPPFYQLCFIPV
Cytochrome P450 2D6, sequence (P10635 whole entry): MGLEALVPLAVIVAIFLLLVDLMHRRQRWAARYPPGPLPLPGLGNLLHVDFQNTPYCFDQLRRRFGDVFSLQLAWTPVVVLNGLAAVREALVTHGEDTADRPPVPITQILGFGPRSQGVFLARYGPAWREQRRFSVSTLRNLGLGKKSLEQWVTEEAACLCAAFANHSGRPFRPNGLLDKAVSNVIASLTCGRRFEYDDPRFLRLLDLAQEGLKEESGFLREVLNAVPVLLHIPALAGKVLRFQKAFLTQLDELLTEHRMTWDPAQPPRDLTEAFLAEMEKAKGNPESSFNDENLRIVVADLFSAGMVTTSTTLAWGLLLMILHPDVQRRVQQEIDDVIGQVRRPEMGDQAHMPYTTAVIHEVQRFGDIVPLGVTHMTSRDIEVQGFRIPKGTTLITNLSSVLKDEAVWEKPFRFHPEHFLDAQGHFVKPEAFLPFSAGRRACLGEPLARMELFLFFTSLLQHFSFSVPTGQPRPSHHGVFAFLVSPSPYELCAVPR

Structure (SMILES): c1cc(C2CCC3(CC2)OOC2(OO3)C3CC4CC(C3)CC2C4)ccc1CN1CCOCC1 (configuration not stated)
- Cmax/dose (Mus musculus [1]): 0.0218 µg/mL/mg/kg
- Drug metabolism [2]: Metabolite_Notdetected
- Cmax [3]: 607 ng/mL
- Drug metabolism [4]: Metabolite_Notdetected
- Drug metabolism [5]: Metabolite_Notdetected
- Drug metabolism [6]: Metabolite_Notdetected
- Drug metabolism [7]: Metabolite_Notdetected
- IC50 (Cytochrome P450 2C19): > 20 µM
- ED90 (Plasmodium falciparum [8]): 8.6 mg/kg
- half-life at 5 µM [9]: 1.45 h
- Drug metabolism [10]: Metabolite_Detected
- AUC(0-t) [11]: 2320 ng·h/mL
- Tmax [12]: 1 h
- microsomal CLint at 5 µM [13]: 20 µL/min/mg
- Drug metabolism [14]: Metabolite_Notdetected
- AUC(0-t) [15]: 3000 ng·h/mL
- AUCt/dose (Mus musculus [16]): 0.256 µg·h/mL/mg/kg
- Drug metabolism [17]: Metabolite_Notdetected
- IC50 (Cytochrome P450 3A4): > 20 µM
- IC50 (Cytochrome P450 2C9): > 20 µM
- half-life [18]: 17 h
- Drug metabolism [19]: Metabolite_Notdetected
- Drug metabolism [20]: Metabolite_Detected
- Drug metabolism [21]: Metabolite_Notdetected
- microsomal CLint at 1 µM [22]: 118 µL/min/mg
- Drug metabolism [23]: Metabolite_Notdetected
- Stability [24]: Stable
- Drug metabolism [25]: Metabolite_Detected
- Drug metabolism [26]: Metabolite_Notdetected
- Drug metabolism [27]: Metabolite_Notdetected
- IC50 (Cytochrome P450 2D6): > 20 µM
- IC50 (Plasmodium falciparum [28]): 0.0013 µM
- half-life at 1 µM [29]: 0.567 h
- AUCt/dose (Mus musculus [30]): 0.0599 µg·h/mL/mg/kg
- metabolised at 1 h, 5 µM [31]: 63%
- Cmax/dose (Mus musculus [32]): 0.0099 µg/mL/mg/kg
- Cmax [33]: 109 ng/mL
